US10617667B2, “Method for treating brain tumors” (ONO PHARMACEUTICAL CO., LTD., priority 2017, dated 2020)

Assays:
[1] = tested on: mouse glioma cell line GL261 orthotopic-graft; assay: Survival in mouse glioma cell line GL261 orthotopic-graft model; assay type: in vivo, immunocompetent syngeneic C57BL/6 mice; conditions: Compound A 3 mg/kg oral twice a day
Procedure: Effects of Combination of Compound A and an Anti-Mouse PD-1 Antibody in Mouse Glioma Cell Line GL261 Orthotopic-Graft Models Using Immunocompetent Syngeneic C57BL/6 Mice
The effect of a combination of Compound A and an anti-mouse PD-1 antibody (4H2, see WO2006/121168) was evaluated in mouse glioma cell line GL261 orthotopic-graft models using immunocompetent syngeneic C57BL/6 mice. GL261 was cultured in a CO2 incubator using an RPMI medium (Mediatech, Inc.) containing 10 vol % of FBS, 100 units/mL of penicillin, and 100 μg/mL of streptomycin. On the day of transplant, GL261 was harvested after removing the culture supernatant, and washing the cells with PBS. The harvested GL261 cells were suspended in PBS to obtain transplant cells. The transplant cells (5×10^4) were then transplanted to the brain of female C57BL/6J mice (The Jackson Laboratory) under anesthesia.
After 5 days from transplant, the mice were divided into 4 groups: a vehicle group, a Compound A single group, an anti-mouse PD-1 antibody single group, and a combination group (Compound A and the anti-mouse PD-1 antibody). Each group included 10 mice. […] The general condition of the mice was observed once a day from the day following the day of transplant of GL261, and scored according to the following table. Thus, the survival rate of the mice was evaluated.

EP4 receptor [2] = target: T1, EP4 receptor (Homo sapiens, UniProt P35408); conditions: as taught by Patent Document 1 (WO2016/111347); cited from earlier work
EP4 receptor [3] = target: T1, EP4 receptor; conditions: as taught by Patent Document 1 (WO2016/111347); cited from earlier work; remark: listed apart in the source

T1 sequence (P35408 whole entry): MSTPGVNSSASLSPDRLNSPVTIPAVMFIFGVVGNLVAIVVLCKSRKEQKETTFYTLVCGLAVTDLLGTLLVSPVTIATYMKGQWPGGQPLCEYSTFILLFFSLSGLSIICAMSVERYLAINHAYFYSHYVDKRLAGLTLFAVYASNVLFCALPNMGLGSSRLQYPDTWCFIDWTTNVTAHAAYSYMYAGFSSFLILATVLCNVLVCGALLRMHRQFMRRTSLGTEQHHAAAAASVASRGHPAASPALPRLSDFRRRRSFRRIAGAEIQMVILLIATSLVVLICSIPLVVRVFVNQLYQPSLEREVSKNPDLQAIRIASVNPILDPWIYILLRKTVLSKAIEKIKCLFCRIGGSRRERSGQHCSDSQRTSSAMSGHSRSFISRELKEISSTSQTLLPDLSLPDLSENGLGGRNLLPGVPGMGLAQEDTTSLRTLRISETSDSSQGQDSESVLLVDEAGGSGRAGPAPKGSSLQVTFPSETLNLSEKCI

CC(C)NC(=O)c1ccc2c(c1)[C@]1(CCO2)C[C@H]1C(=O)Nc1cc(C#N)ccc1CCCC(=O)O [Compound A, 4-[4-cyano-2-({[(2′R,4S)-6-(isopropylcarbamoyl)-2,3-dihydrospiro[chromene-4,1′-cyclopropan]-2′-yl]carbonyl}amino)phenyl]butanoic acid]
survival time compared with vehicle administration group ([1]; GL261 orthotopic graft): longer than that of the vehicle administration group
day after which all the mice had died ([1]; GL261 transplanted to brain of female C57BL/6J mice, days 5-70 from transplant, 10 mice per group): 42 days
binding to EP4 receptor (EP4 receptor [2]): strongly binds
activity at EP4 receptor (EP4 receptor [3]): antagonistic activity
